Assays:
[1] = Example VII: 4 week chick feeding test, weight gain and feed efficiency; assay type: in vivo, broiler cross chicks; settings: analysis of variance; over Basal Ration + Bacitracin
Description: One hundred twenty day-old broiler cross chicks were weight equalized into 15 groups of 8 chicks each and placed in battery brooders. The 40 chick treatment groups (5 replicates) were fed the one of the three rations described below for a four week period. weekly measurements of body weights and feed consumption were made by replicate, and these measurements used to calculate weight gain and feed efficiency.
The commercial type broiler starter basal ration which was used in this study was designated as the Basal Ration, and had the following composition:
The preceding basal ration was mixed with bacitracin at a level of 4 g/T as the only growth stimulant to simulate commercial practice. This mixture was designated as the Basal Ration + Bacitracin (4 g/T) and constituted the negative control in this study.
A second ration was prepared by fortifying the Basal Ration + bacitracin described above with the Product from Example I above at a level of 200 g/T, and was designated as Basal Ration + Bacitracin + Product of Example I (200 g/T). A third ration was prepared by fortifying the Basal Ration + bacitracin described above with chlortetracycline (CTC) at a level of 200 g/T, and was designated as Basal Ration + Bacitracin + Chlortetracycline (200 g/T).
The term "growth promotion" is used herein to describe the beneficial effect of a compound in eliciting a more rapid of weight gain when compared to the weight gain of control animals not fed the compound. "Feed efficiency" is a term regularly used in animal husbandry and is a measure of the pounds of feed required to produce a pound of gain in the weight of the animal. A lower mathmatical value for feed efficiency reflects improved performance.

[2] = Example XI: 4 week chick feeding test, five replicates; assay type: in vivo, broiler cross chicks; settings: Table V
Description: (§1) This example compares growth promotion activity of the product of Example I with other growth promotants at a concentration of 25 g/T in the Basal Ration described in Example VII. The other growth promotants include the product described in Example I of U.S. Pat. No. 3,542,784 -- Burch and quinoxaline-1,4-dioxide. Day old broiler cross chicks were weight equalized into groups of 8 chicks each, and four replicates of 8 chicks each were fed the experimental rations over a 4 week period.
The growth promotion tests described in Example X were repeated with the exception that fives replicates of 8 chicks each were fed the formulations described in Table V for four weeks.

Escherichia coli = assay: Bactericide test (agar streak, growth inhibition rated 0/50/100); assay type: cell-based
Description: (§2) Test formulations were examined for bactericidal and/or bacteriostatic activity against the test organisms shown in Tables A and B. These organisms were chosen as being representative of commercially important pathogens affecting animal agriculture. The antibiotic chlortetracycline was chosen as a positive control, since it has a broad spectrum of activity against a large number of organisms, and its activity can be used for comparative purposes.
(§3) Basic test formulations of the product of Examples I, II, III, and of chlortetracycline were prepared by dissolving 16 mg (0.016 g) in 2.0 ml of stock emulsifier solution (0.25% Triton X-155 in acetone by volume) and making each solution up to 50 ml with deionized water. The concentration of the test compound in the basic formulation was 320 ppm. Lower concentrations of the test compound were obtained by diluting the basic formulation with a 4% solution of the stock emulsifier in deionized water so that each dilution in the series differed only in test compound content.
(§4) Nutrient-tryptic soy agar (NTA) consisting of 2.0% Difco Bactoagar 0.8% nutrient broth (Difco), and 0.5% tryptic soy broth (Difco) was prepared and sterilized by autoclaving. A 2 ml aliquot of each test formulation was added to 8 ml of molten NTA. This mixture was then plated in a sterile polystyrene petri dish (100 × 15 mm). After the agar was set, suspensions of each of the test organisms were simultaneously streaked onto the surface of the agar. The inoculated plates were incubated for 48 hr. at 28°C. The inhibition of growth of each organism was rated by visual comparison with the organism developing on non-treated agar. Growth inhibition reported as percent control was rated in three categories as follows: 0% control, growth equivalent to that on non-treated agar; 50% control, sparse development and separated colonies; 100% control, no visible growth or development of colonies.
(§5) Test formulations of the product of Example IV were examined for bactericidal and/or bacteriostatic activity against the test organisms shown in Table B using the Bactericide Test described in Example V. The inhibition of organism growth with each diluted test formulation was rated visually by comparison with the organism developing on a non-treated control agar plate. Growth inhibition reported as percent control was rated in three categories as follows: 0% control, growth equivalent to that on non-treated agar; 50% control is sparse development and separated colonies; and 100% control, development of individual colonies was not apparent.

Salmonella cholerasuis = assay: as above; assay type: cell-based
Description: as §2, §3, §4, §5

Salmonella gallinarum = assay: as above; assay type: cell-based; settings: Salmonella enterica
Description: as §2, §3, §4, §5

Staphylococcus aureus = assay: as above; assay type: cell-based
Description: as §2, §3, §4, §5

Streptococcus faecalis = assay: as above; assay type: cell-based; settings: Enterococcus faecalis
Description: as §2, §3, §4, §5

[3] = system: Bordetella bronchiseptica; assay: as above; assay type: cell-based
Description: as §2, §3, §4

[4] = system: Erysipelothrix rhusiopathiae; assay: as above; assay type: cell-based
Description: as §2, §3, §4

Salmonella typhimurium = assay: as above; assay type: cell-based; settings: Salmonella enterica
Description: as §2, §3, §4

Streptococcus agalactiae = assay: as above; assay type: cell-based
Description: as §2, §3, §4

Streptococcus group E = assay: as above; assay type: cell-based
Description: as §2, §3, §4

Vibrio coli = assay: as above; assay type: cell-based; settings: Campylobacter coli
Description: as §2, §3, §4

[5] = Example XII: 4 week chick feeding test, first set (Table VI); assay type: in vivo, broiler cross chicks; settings: 25g/T
Description: as §1
The growth promotion tests described in Example X were repeated with the additional testing the products of Examples II and III.

[6] = Example XII: 4 week chick feeding test, repeat with five replicates (Table VII); assay type: in vivo, broiler cross chicks; settings: 25g/T

For `CN(C)[C@@H]1C(O)=C(C(N)=O)C(=O)[C@@]2(O)C(O)=C3C(=O)c4c(O)ccc(Cl)c4[C@@](C)(O)[C@H]3C[C@@H]12` [Chlortetracycline, reference compound], the “statistical significance of improved feed efficiencies” value [1] was “significant at the 99.9% level of probability”, the “statistical significance of improved weight gains” value [1] was “significant at the 99.5% level of probability” and the “feed efficiency (in words)” value [2] was “moderate improvements in feed efficiencies”. The “growth rate (in words)” value [2] was “slight improvements in growth rates”.
In the case of `O=[N+]([O-])c1ccc(C=Cc2nc(Nc3ccccc3O)c3ccccc3n2)o1` [Example III, 2-[2-(5-nitro-furyl)vinyl]-4-(o-hydroxyanilino)quinazoline], the inhibition at 0.125 ppm (Escherichia coli; 0.125 ppm) is reported as 0%, the inhibition at 0.25 ppm (Escherichia coli; 0.25 ppm) is reported as 0% and the inhibition at 0.5 ppm (Escherichia coli; 0.5 ppm) is reported as 0%. The inhibition at 1 ppm (Escherichia coli; 1 ppm) was 0%, the inhibition at 2 ppm (Escherichia coli; 2 ppm) was 0% and the inhibition at 4 ppm (Escherichia coli; 4 ppm) was 0%. The inhibition at 8 ppm (Escherichia coli; 8 ppm) was 0%, the inhibition at 16 ppm (Escherichia coli; 16 ppm) was 0% and the inhibition at 32 ppm (Escherichia coli; 32 ppm) was 0%. For the same molecule, the inhibition at 64 ppm (Escherichia coli; 64 ppm) was 0%, the inhibition at 0.125 ppm (Salmonella cholerasuis; 0.125 ppm) was 0% and the inhibition at 0.25 ppm (Salmonella cholerasuis; 0.25 ppm) was 0%. For the same molecule, the inhibition at 0.5 ppm (Salmonella cholerasuis; 0.5 ppm) was 0%, the inhibition at 1 ppm (Salmonella cholerasuis; 1 ppm) was 0% and the inhibition at 2 ppm (Salmonella cholerasuis; 2 ppm) was 0%. The inhibition at 4 ppm (Salmonella cholerasuis; 4 ppm) was 50%, the inhibition at 8 ppm (Salmonella cholerasuis; 8 ppm) was 50% and the inhibition at 16 ppm (Salmonella cholerasuis; 16 ppm) was 100%. For the same molecule, the inhibition at 32 ppm (Salmonella cholerasuis; 32 ppm) was 100%, the inhibition at 64 ppm (Salmonella cholerasuis; 64 ppm) was 100% and the inhibition at 0.125 ppm (Salmonella gallinarum; 0.125 ppm) was 0%. The inhibition at 0.25 ppm (Salmonella gallinarum; 0.25 ppm) was 0%, the inhibition at 0.5 ppm (Salmonella gallinarum; 0.5 ppm) was 0% and the inhibition at 1 ppm (Salmonella gallinarum; 1 ppm) was 0%. For the same molecule, the inhibition at 2 ppm (Salmonella gallinarum; 2 ppm) was 0%, the inhibition at 4 ppm (Salmonella gallinarum; 4 ppm) was 50% and the inhibition at 8 ppm (Salmonella gallinarum; 8 ppm) was 50%. The inhibition at 16 ppm (Salmonella gallinarum; 16 ppm) was 100%, the inhibition at 32 ppm (Salmonella gallinarum; 32 ppm) was 100% and the inhibition at 64 ppm (Salmonella gallinarum; 64 ppm) was 100%. It also gave an inhibition at 0.125 ppm (Staphylococcus aureus; 0.125 ppm) of 0%, an inhibition at 0.25 ppm (Staphylococcus aureus; 0.25 ppm) of 0% and an inhibition at 0.5 ppm (Staphylococcus aureus; 0.5 ppm) of 0%. It also gave an inhibition at 1 ppm (Staphylococcus aureus; 1 ppm) of 0%, an inhibition at 2 ppm (Staphylococcus aureus; 2 ppm) of 0% and an inhibition at 4 ppm (Staphylococcus aureus; 4 ppm) of 0%. The inhibition at 8 ppm (Staphylococcus aureus; 8 ppm) was 0%, the inhibition at 16 ppm (Staphylococcus aureus; 16 ppm) was 0% and the inhibition at 32 ppm (Staphylococcus aureus; 32 ppm) was 0%. It also gave an inhibition at 64 ppm (Staphylococcus aureus; 64 ppm) of 0%, an inhibition at 0.125 ppm (Streptococcus faecalis; 0.125 ppm) of 0% and an inhibition at 0.25 ppm (Streptococcus faecalis; 0.25 ppm) of 0%. For the same molecule, the inhibition at 0.5 ppm (Streptococcus faecalis; 0.5 ppm) was 50%, the inhibition at 1 ppm (Streptococcus faecalis; 1 ppm) was 100% and the inhibition at 2 ppm (Streptococcus faecalis; 2 ppm) was 100%. It also gave an inhibition at 4 ppm (Streptococcus faecalis; 4 ppm) of 100%, an inhibition at 8 ppm (Streptococcus faecalis; 8 ppm) of 100% and an inhibition at 16 ppm (Streptococcus faecalis; 16 ppm) of 100%. The inhibition at 32 ppm (Streptococcus faecalis; 32 ppm) was 100%, the inhibition at 64 ppm (Streptococcus faecalis; 64 ppm) was 100% and the inhibition at 0.125 ppm ([3]; 0.125 ppm) was 100%. It also gave an inhibition at 0.25 ppm ([3]; 0.25 ppm) of 100%, an inhibition at 0.5 ppm ([3]; 0.5 ppm) of 100% and an inhibition at 1 ppm ([3]; 1 ppm) of 100%. The inhibition at 2 ppm ([3]; 2 ppm) was 100%, the inhibition at 4 ppm ([3]; 4 ppm) was 100% and the inhibition at 8 ppm ([3]; 8 ppm) was 100%. The inhibition at 16 ppm ([3]; 16 ppm) was 100%, the inhibition at 32 ppm ([3]; 32 ppm) was 100% and the inhibition at 64 ppm ([3]; 64 ppm) was 100%. It also gave an inhibition at 0.125 ppm ([4]; 0.125 ppm) of 100%, an inhibition at 0.25 ppm ([4]; 0.25 ppm) of 100% and an inhibition at 0.5 ppm ([4]; 0.5 ppm) of 100%. For the same molecule, the inhibition at 1 ppm ([4]; 1 ppm) was 100%, the inhibition at 2 ppm ([4]; 2 ppm) was 100% and the inhibition at 4 ppm ([4]; 4 ppm) was 100%. It also gave an inhibition at 8 ppm ([4]; 8 ppm) of 100%, an inhibition at 16 ppm ([4]; 16 ppm) of 100% and an inhibition at 32 ppm ([4]; 32 ppm) of 100%. The inhibition at 64 ppm ([4]; 64 ppm) was 100%, the inhibition at 0.125 ppm (Salmonella typhimurium; 0.125 ppm) was 0% and the inhibition at 0.25 ppm (Salmonella typhimurium; 0.25 ppm) was 0%. The inhibition at 0.5 ppm (Salmonella typhimurium; 0.5 ppm) was 0%, the inhibition at 1 ppm (Salmonella typhimurium; 1 ppm) was 0% and the inhibition at 2 ppm (Salmonella typhimurium; 2 ppm) was 0%. It also gave an inhibition at 4 ppm (Salmonella typhimurium; 4 ppm) of 0%, an inhibition at 8 ppm (Salmonella typhimurium; 8 ppm) of 0% and an inhibition at 16 ppm (Salmonella typhimurium; 16 ppm) of 0%. For the same molecule, the inhibition at 32 ppm (Salmonella typhimurium; 32 ppm) was 0%, the inhibition at 64 ppm (Salmonella typhimurium; 64 ppm) was 0% and the inhibition at 0.125 ppm (Streptococcus agalactiae; 0.125 ppm) was 100%. The inhibition at 0.25 ppm (Streptococcus agalactiae; 0.25 ppm) was 100%, the inhibition at 0.5 ppm (Streptococcus agalactiae; 0.5 ppm) was 100% and the inhibition at 1 ppm (Streptococcus agalactiae; 1 ppm) was 100%. The inhibition at 2 ppm (Streptococcus agalactiae; 2 ppm) was 100%, the inhibition at 4 ppm (Streptococcus agalactiae; 4 ppm) was 100% and the inhibition at 8 ppm (Streptococcus agalactiae; 8 ppm) was 100%. For the same molecule, the inhibition at 16 ppm (Streptococcus agalactiae; 16 ppm) was 100%, the inhibition at 32 ppm (Streptococcus agalactiae; 32 ppm) was 100% and the inhibition at 64 ppm (Streptococcus agalactiae; 64 ppm) was 100%. The inhibition at 0.125 ppm (Streptococcus group E; 0.125 ppm) was 100%, the inhibition at 0.25 ppm (Streptococcus group E; 0.25 ppm) was 100% and the inhibition at 0.5 ppm (Streptococcus group E; 0.5 ppm) was 100%. The inhibition at 1 ppm (Streptococcus group E; 1 ppm) was 100%, the inhibition at 2 ppm (Streptococcus group E; 2 ppm) was 100% and the inhibition at 4 ppm (Streptococcus group E; 4 ppm) was 100%. For the same molecule, the inhibition at 8 ppm (Streptococcus group E; 8 ppm) was 100%, the inhibition at 16 ppm (Streptococcus group E; 16 ppm) was 100% and the inhibition at 32 ppm (Streptococcus group E; 32 ppm) was 100%. It also gave an inhibition at 64 ppm (Streptococcus group E; 64 ppm) of 100%, an inhibition at 0.125 ppm (Vibrio coli; 0.125 ppm) of 100% and an inhibition at 0.25 ppm (Vibrio coli; 0.25 ppm) of 100%. It also gave an inhibition at 0.5 ppm (Vibrio coli; 0.5 ppm) of 100%, an inhibition at 1 ppm (Vibrio coli; 1 ppm) of 100% and an inhibition at 2 ppm (Vibrio coli; 2 ppm) of 100%. It also gave an inhibition at 4 ppm (Vibrio coli; 4 ppm) of 100%, an inhibition at 8 ppm (Vibrio coli; 8 ppm) of 100% and an inhibition at 16 ppm (Vibrio coli; 16 ppm) of 100%. The inhibition at 32 ppm (Vibrio coli; 32 ppm) was 100%, the inhibition at 64 ppm (Vibrio coli; 64 ppm) was 100% and the “Average 4 Week Performance: Feed Efficiency” value [5] was 1.597. For the same molecule, the “Average 4 Week Performance: Gain” value [5] was 766.9 g, the “Improved Response Over Basal Ration: Feed Efficiency” value [5] was “+2.3%” and the “Improved Response Over Basal Ration: Gain” value [5] was “+3.1%”. For the same molecule, the “Average 4 Week Performance: Feed Efficiency” value [6] was 1.669, the “Average 4 Week Performance: Gain” value [6] was 723.7 g and the “Improved Response Over Basal Ration: Feed Efficiency” value [6] was “+6.5%”. The “Improved Response Over Basal Ration: Gain” value [6] was “+6.0%”.

Source: patent US3973021A, “2-[2-(5-Nitro-2-furyl)vinyl]-4-(phydroxyanilino)quinazoline as a bactericide” (Diamond Shamrock Corporation, priority 1975, dated 1976)
